In ChEMBL document CHEMBL1909046, “DrugMatrix in vitro pharmacology data”:

Legend:
Nitric oxide synthase 1 = Nitric oxide synthase 1 (Rattus norvegicus, UniProt P29476); assay type: tissue-based, Cerebellum; also: in other assays of this panel Not Active means under 50% inhibition at 10 µM
Estrogen receptor = target: T1, Estrogen receptor (Homo sapiens, UniProt P03372); details: sf9; also: in other assays of this panel Not Active means under 50% inhibition at 10 µM
T1 sequence (P03372 whole entry): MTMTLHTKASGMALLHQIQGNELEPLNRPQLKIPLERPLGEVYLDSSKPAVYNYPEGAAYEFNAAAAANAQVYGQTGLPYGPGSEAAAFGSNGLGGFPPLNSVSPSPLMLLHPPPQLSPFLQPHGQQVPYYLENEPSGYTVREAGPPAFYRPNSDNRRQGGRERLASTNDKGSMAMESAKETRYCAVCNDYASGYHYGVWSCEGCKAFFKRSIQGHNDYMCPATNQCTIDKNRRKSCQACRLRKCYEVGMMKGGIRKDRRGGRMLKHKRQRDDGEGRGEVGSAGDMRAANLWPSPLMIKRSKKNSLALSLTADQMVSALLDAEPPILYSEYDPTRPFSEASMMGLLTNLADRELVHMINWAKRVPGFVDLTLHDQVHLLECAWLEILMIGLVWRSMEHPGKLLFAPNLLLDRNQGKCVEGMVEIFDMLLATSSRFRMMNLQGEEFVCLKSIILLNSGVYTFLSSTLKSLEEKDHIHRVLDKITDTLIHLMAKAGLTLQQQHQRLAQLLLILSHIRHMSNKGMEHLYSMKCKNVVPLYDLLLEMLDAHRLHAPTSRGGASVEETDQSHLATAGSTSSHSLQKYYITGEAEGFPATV

Vasopressin V1a receptor = Vasopressin V1a receptor (Homo sapiens, UniProt P37288); assay type: cell membranes, Membrane; details: hek293; also: in other assays of this panel Not Active means under 50% inhibition at 10 µM
[1] = DRUGMATRIX: Nicotinic Acetylcholine radioligand binding (ligand: [125I] Epibatidine); assay type: cell membranes, Membrane; details: imr-32; Not Active = under 50% inhibition at 10 µM
Cytochrome P450 3A4 = Cytochrome P450 3A4 (Homo sapiens, UniProt P08684); details: bti-tn-5b1-4; also: in other assays of this panel Not Active means under 50% inhibition at 10 µM
[2] = target: T2, Muscarinic acetylcholine receptor M4 (Homo sapiens, UniProt P08173); assay type: cell membranes, CHO-K1, Membrane; details: cho-k1; also: in other assays of this panel Not Active means under 50% inhibition at 10 µM
T2 sequence (P08173 whole entry): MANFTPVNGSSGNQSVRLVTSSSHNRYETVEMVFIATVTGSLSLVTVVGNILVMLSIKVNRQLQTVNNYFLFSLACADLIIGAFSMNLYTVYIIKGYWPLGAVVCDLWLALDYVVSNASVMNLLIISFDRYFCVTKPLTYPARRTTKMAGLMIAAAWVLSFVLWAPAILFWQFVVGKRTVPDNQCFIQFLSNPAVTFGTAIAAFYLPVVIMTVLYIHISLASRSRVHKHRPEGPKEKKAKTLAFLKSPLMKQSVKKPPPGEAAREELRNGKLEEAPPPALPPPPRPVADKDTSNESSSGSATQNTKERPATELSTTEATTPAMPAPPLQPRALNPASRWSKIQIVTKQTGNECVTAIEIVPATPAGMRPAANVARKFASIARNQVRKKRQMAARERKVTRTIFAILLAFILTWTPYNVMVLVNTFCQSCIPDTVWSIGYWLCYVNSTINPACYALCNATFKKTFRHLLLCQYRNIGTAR

[3] = target: 5-hydroxytryptamine receptor 2B (Homo sapiens, UniProt P41595); assay type: cell membranes, CHO-K1, Membrane; details: cho-k1; also: in other assays of this panel Not Active means under 50% inhibition at 10 µM
Sequence of 5-hydroxytryptamine receptor 2B (P41595 whole entry): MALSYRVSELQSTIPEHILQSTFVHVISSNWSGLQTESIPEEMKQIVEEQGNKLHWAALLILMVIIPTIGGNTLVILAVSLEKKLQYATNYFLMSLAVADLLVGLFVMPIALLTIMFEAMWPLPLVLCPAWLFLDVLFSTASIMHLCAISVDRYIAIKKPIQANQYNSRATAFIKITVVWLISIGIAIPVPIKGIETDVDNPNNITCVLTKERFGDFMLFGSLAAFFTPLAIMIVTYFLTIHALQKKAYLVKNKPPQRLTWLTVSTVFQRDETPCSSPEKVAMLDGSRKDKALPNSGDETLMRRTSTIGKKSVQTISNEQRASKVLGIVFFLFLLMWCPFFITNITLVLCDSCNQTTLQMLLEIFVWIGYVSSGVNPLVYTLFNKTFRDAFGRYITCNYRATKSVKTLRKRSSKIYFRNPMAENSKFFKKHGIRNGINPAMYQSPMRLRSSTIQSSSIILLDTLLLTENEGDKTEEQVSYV

Sequence of Nitric oxide synthase 1 (P29476 whole entry): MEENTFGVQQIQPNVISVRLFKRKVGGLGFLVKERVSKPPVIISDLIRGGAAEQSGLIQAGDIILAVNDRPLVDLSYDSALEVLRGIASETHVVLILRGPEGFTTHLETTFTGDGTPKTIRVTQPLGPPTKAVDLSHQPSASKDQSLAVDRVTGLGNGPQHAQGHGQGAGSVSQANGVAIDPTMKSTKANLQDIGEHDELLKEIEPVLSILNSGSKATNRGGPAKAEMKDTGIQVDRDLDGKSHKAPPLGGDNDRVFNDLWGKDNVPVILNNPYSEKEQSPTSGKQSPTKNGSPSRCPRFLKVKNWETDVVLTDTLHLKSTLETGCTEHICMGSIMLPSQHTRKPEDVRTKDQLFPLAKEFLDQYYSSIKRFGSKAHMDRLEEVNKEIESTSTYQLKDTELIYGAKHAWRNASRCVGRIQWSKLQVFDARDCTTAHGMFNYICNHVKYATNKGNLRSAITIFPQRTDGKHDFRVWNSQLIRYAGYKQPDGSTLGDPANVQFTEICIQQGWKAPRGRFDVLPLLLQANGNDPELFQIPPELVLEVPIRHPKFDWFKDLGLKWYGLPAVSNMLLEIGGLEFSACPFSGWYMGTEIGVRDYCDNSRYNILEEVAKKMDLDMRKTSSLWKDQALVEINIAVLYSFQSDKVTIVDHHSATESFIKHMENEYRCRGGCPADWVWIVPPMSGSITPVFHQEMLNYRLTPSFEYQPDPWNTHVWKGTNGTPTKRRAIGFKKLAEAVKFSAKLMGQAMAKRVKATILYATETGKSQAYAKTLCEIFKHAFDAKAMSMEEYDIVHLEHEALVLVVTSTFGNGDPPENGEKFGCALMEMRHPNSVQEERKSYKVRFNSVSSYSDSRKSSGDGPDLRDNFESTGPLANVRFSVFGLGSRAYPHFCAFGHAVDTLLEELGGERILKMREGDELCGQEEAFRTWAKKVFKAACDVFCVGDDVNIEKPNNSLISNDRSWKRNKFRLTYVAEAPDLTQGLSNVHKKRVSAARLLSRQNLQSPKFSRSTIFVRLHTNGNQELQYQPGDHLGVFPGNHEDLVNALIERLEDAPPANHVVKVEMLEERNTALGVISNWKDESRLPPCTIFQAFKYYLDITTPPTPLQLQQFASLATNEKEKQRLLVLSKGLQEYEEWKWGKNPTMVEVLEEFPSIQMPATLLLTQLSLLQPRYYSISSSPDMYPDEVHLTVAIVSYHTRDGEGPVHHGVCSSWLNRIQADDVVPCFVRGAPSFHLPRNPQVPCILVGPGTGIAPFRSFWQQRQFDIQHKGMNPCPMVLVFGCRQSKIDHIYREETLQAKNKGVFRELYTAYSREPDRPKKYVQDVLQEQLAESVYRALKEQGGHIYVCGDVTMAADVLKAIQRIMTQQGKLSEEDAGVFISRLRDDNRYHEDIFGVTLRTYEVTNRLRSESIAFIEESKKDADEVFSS
Sequence of Cytochrome P450 3A4 (P08684 whole entry): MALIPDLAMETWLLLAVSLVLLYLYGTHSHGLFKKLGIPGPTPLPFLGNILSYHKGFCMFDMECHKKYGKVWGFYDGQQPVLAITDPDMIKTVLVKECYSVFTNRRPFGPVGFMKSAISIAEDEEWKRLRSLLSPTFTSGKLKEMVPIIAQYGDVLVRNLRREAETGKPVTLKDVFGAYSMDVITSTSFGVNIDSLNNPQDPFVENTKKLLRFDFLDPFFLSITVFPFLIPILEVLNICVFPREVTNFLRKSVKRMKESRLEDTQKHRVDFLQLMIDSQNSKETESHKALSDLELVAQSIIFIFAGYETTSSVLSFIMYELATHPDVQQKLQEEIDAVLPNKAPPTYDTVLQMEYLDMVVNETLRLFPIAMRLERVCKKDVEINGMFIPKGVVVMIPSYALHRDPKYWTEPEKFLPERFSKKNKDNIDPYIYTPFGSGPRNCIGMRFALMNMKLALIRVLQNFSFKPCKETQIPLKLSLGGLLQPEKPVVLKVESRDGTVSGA
Sequence of Vasopressin V1a receptor (P37288 whole entry): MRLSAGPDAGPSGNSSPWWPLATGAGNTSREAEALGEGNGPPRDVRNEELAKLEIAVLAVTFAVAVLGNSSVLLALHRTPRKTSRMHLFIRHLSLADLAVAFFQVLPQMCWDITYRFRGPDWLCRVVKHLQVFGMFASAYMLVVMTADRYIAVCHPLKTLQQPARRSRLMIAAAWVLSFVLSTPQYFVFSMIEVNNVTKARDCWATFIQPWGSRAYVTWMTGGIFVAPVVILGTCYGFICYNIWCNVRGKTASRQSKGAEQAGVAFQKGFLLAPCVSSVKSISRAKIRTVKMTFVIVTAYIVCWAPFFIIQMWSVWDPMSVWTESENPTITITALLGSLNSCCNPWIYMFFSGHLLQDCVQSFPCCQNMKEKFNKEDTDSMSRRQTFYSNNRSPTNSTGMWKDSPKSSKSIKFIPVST

NC[C@H]1O[C@H](O[C@H]2[C@H](O)[C@@H](O[C@H]3O[C@H](CO)[C@@H](O)[C@H](N)[C@H]3O)[C@H](N)C[C@@H]2N)[C@H](N)C[C@@H]1O [TOBRAMYCIN]
Not Active: IC50 (Nitric oxide synthase 1) | IC50 (Estrogen receptor) | IC50 (Vasopressin V1a receptor) | IC50 [1] | Ki [1] | IC50 (Cytochrome P450 3A4) | Ki (Cytochrome P450 3A4) | IC50 [2] | IC50 [3]

O=P(O)(O)C(O)(Cc1cccnc1)P(=O)(O)O [RISEDRONIC ACID]
Not Active: IC50 (Nitric oxide synthase 1) | IC50 (Estrogen receptor) | IC50 (Vasopressin V1a receptor) | IC50 [1] | Ki [1] | IC50 (Cytochrome P450 3A4) | Ki (Cytochrome P450 3A4) | IC50 [2] | IC50 [3]

Nc1ccc(S(=O)(=O)Nc2nccs2)cc1 [SULFATHIAZOLE]
Not Active: IC50 (Nitric oxide synthase 1) | IC50 (Estrogen receptor) | IC50 (Vasopressin V1a receptor) | IC50 [1] | Ki [1] | IC50 (Cytochrome P450 3A4) | Ki (Cytochrome P450 3A4) | IC50 [2] | IC50 [3]

CN[C@@H]1[C@H](O)[C@H](NC)[C@H]2O[C@@]3(O)C(=O)C[C@@H](C)O[C@H]3O[C@@H]2[C@H]1O [SPECTINOMYCIN]
Not Active: IC50 (Nitric oxide synthase 1) | IC50 (Estrogen receptor) | IC50 (Vasopressin V1a receptor) | IC50 [1] | Ki [1] | IC50 (Cytochrome P450 3A4) | Ki (Cytochrome P450 3A4) | IC50 [2] | IC50 [3]

C#CCN(C)[C@H](C)Cc1ccccc1 [SELEGILINE]
Not Active: IC50 (Nitric oxide synthase 1) | IC50 (Estrogen receptor) | IC50 (Vasopressin V1a receptor) | IC50 [1] | Ki [1] | IC50 (Cytochrome P450 3A4) | Ki (Cytochrome P450 3A4) | IC50 [2] | IC50 [3]

COc1cc(C(=O)NS(=O)(=O)c2ccccc2C)ccc1Cc1cn(C)c2ccc(NC(=O)OC3CCCC3)cc12 [ZAFIRLUKAST]
Not Active: IC50 (Nitric oxide synthase 1) | IC50 (Estrogen receptor) | IC50 (Vasopressin V1a receptor) | IC50 [1] | Ki [1] | IC50 (Cytochrome P450 3A4) | Ki (Cytochrome P450 3A4) | IC50 [2] | IC50 [3]

STANNOUS FLUORIDE
Not Active: IC50 (Nitric oxide synthase 1) | Ki (Nitric oxide synthase 1) | IC50 (Estrogen receptor) | Ki (Estrogen receptor) | IC50 (Vasopressin V1a receptor) | Ki (Vasopressin V1a receptor) | IC50 [1] | Ki [1] | IC50 (Cytochrome P450 3A4) | Ki (Cytochrome P450 3A4) | IC50 [2] | Ki [2] | IC50 [3] | Ki [3]

C[C@]12CC[C@H]3[C@@H](CCC4=CC(=O)CC[C@@]43C)[C@@H]1CC[C@@H]2O [TESTOSTERONE]
Not Active: IC50 (Nitric oxide synthase 1) | IC50 (Estrogen receptor) | IC50 (Vasopressin V1a receptor) | IC50 [1] | Ki [1] | IC50 (Cytochrome P450 3A4) | Ki (Cytochrome P450 3A4) | IC50 [2] | IC50 [3]

COc1ccc(/C=C/C(=O)Nc2ccccc2C(=O)O)cc1OC
Not Active: IC50 (Nitric oxide synthase 1) | IC50 (Estrogen receptor) | IC50 (Vasopressin V1a receptor) | IC50 [1] | Ki [1] | IC50 (Cytochrome P450 3A4) | Ki (Cytochrome P450 3A4) | IC50 [2] | IC50 [3]
